What all share (experiment): NCI-60 cell line screen, 48 h
The subject of test [1] is SF-295.
Test [2] has as its system UACC-62.
Test [3] concerns OVCAR-8.
In test [4] the test system is HOP-92.
The subject of test [5] is KM12.
Test [6] relates to SF-268.
In test [7] the test system is SK-OV-3.
Test [8] has as its system HCT-116.
In test [9] the test system is OVCAR-3.
Test [10] has as its system SR.
Test [11] concerns SW-620.
Test [12] has as its system NCI-H23.
In test [13] the test system is A549.
The test system of test [14] is CCRF-CEM.
Test [15] relates to OVCAR-4.

Results on 14 compounds are retold here after ChEMBL document CHEMBL1201862, “PubChem BioAssay data set” (2004).

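Protocol summary: plate cells (96-well), add compound at 5 concentrations, incubate 48 h, interpolate endpoints linearly. GI50 = concentration required for 50% inhibition of growth.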 Active and inactive are the calls of the source. Rule as the data show it: active = GI50 up to about 1.1 µM and inactive = higher.

Consider `N#CC1(Cc2ccccc2Cl)c2ccccc2C=CN1C(=O)c1ccccc1` (stereo not drawn), for which the GI50 in test [1] is 81.8 µM (inactive); in [2] it was > 100 µM (inactive); in test [3], > 100 µM (inactive); in test [4], 52.7 µM (inactive); in [5], > 100 µM (inactive); in [6], > 100 µM (inactive). The GI50 in test [7] was > 100 µM (inactive); in test [8], > 100 µM (inactive); in test [9] it was > 100 µM (inactive); in test [10], 45.5 µM (inactive); in test [11] it was > 100 µM (inactive); in test [12], 28.2 µM (inactive). In addition, the values for the GI50 in [13] and in test [14] were 90.8 µM (inactive) and 57.4 µM (inactive), respectively.
Turning to `N#Cc1ccccc1Sc1ccccc1N`, the GI50 in test [1] was > 100 µM (inactive); in [2] it was 50.1 µM (inactive); in test [3], > 100 µM (inactive); in test [4], 20.7 µM (inactive); in test [5], 93.3 µM (inactive); in [6], > 100 µM (inactive). The GI50 in test [7] was > 100 µM (inactive); in [10], 72.6 µM (inactive); in test [11], > 100 µM (inactive); in test [12] it was 67.8 µM (inactive); in test [13], 67.3 µM (inactive); in test [14] it was 73.1 µM (inactive). Further, the GI50 in test [15] was 64.4 µM (inactive).
For the compound `O=C(O)C(CS)NCc1c2ccccc2[n+]([O-])c2ccccc12` (stereo not drawn), the GI50 in [1] is 58.1 µM (inactive); in test [2], 47.4 µM (inactive); in [3], 30.4 µM (inactive); in [4], 2.49 µM (inactive); in [5] it was 31.2 µM (inactive); in test [6], 23 µM (inactive). Besides, the GI50 was > 100 µM (inactive) in [7]; 5.87 µM (inactive) in test [8]; 81.7 µM (inactive) in test [9]; 27.4 µM (inactive) in test [11]; 31 µM (inactive) in test [12]; > 100 µM (inactive) in test [13]. Moreover, the figures for the GI50 in test [14] and in test [15] were 21.5 µM (inactive) and 24.9 µM (inactive), respectively.
Turning to `CC(C)(C)NNC(=O)CCn1[nH]c(=O)c(Cl)c(Cl)c1=O`, the GI50 in test [1], in [2], in [3], in test [5], in test [6] and in test [7] was > 100 µM (inactive) throughout. Moreover, the GI50 in test [9], in [11], in [12], in [13], in test [14] and in test [15] was > 100 µM (inactive) each time.
Turning to `Cc1nc(=O)[nH]c2[nH][nH]c(=O)c12`, the GI50 in [1], in [2], in test [3], in test [4], in [5] and in test [6] was > 100 µM (inactive) in each case. The GI50 in test [7], in test [8], in [9], in test [10], in [11] and in [12] was > 100 µM (inactive) in each case. Further, the GI50 in [13], in test [14] and in test [15] was > 100 µM (inactive) in each case.
For the compound `COc1cc2c(cc1OC)-c1c3cc(O)ccc3nn[n+]1CC2`, the GI50 in test [1], in test [2], in test [3], in [5], in test [6] and in test [7] was > 100 µM (inactive) each time. The GI50 in test [8], in test [9], in test [11], in test [12], in test [13] and in test [14] was > 100 µM (inactive) throughout. Further, the GI50 in test [15] is > 100 µM (inactive).
Consider `CCOC(=O)/C(=C/c1ccc(OC)cc1)N(CC)CC`, for which the GI50 in test [1], in test [2], in test [3], in [4], in [5] and in test [6] was > 100 µM (inactive) in each case. For the same compound, the GI50 in test [7], in test [8], in test [9], in [10], in test [11] and in [12] was > 100 µM (inactive) throughout. For the same compound, the GI50 in test [13], in [14] and in [15] was > 100 µM (inactive) in each case.
For the compound `Cc1ccc(S(=O)(=O)c2ccccn2)cc1`, the GI50 in test [1], in test [2], in test [3], in test [4], in test [5] and in test [6] was > 100 µM (inactive) throughout. For the same compound, the GI50 in test [7], in test [8], in test [9], in test [11], in test [12] and in test [13] was > 100 µM (inactive) in each case. Moreover, the GI50 in [14] and in [15] was > 100 µM (inactive) in each case.
On to `CC(=O)OC1(C#N)CC2OC1C1N=NN(C(=O)OC(C)(C)C)C21` (stereo not drawn), for which the GI50 in test [1] is > 100 µM (inactive); in test [2] it was 18.8 µM (inactive); in [3], 30.3 µM (inactive); in test [4], 20.7 µM (inactive); in test [6], 61.1 µM (inactive); in test [7], > 100 µM (inactive). The GI50 in test [8] was 10.9 µM (inactive); in test [9] it was 43.1 µM (inactive); in test [10] it was 15 µM (inactive); in test [11] it was 14.6 µM (inactive); in test [12], > 10 µM (inactive); in [13] it was > 10 µM (inactive). Also, the GI50 in [14] is 15.1 µM (inactive); in test [15], 28.4 µM (inactive).
In the case of `N[C@H](C(=O)O)[C@H](Cl)CC(=O)O`, the GI50 in test [1], in test [2], in test [3], in [4], in [5] and in [6] was > 100 µM (inactive) in each case. Also, the GI50 in test [7], in test [8], in test [9], in [11], in test [12] and in [13] was > 100 µM (inactive) throughout. For the same compound, the GI50 in [14] and in [15] was > 100 µM (inactive) in each case.
`COC(=O)N/N=C(\C)C(CN(C)C)C(c1ccccc1)c1c(O)c2ccccc2oc1=O` (stereo not drawn): the GI50 was > 100 µM (inactive) in test [1]; > 100 µM (inactive) in test [2]; > 100 µM (inactive) in [3]; 27.2 µM (inactive) in [4]; > 100 µM (inactive) in test [5]; > 100 µM (inactive) in test [6]. Moreover, the GI50 in test [7], in [8], in [10], in test [11], in test [12] and in test [13] was > 100 µM (inactive) each time. Moreover, the GI50 in test [14] and in test [15] was > 100 µM (inactive) each time.
As for `O=C(CCc1n[nH]c(=S)o1)Nc1ccc(Cl)cc1Cl`, the GI50 is > 100 µM (inactive) in test [1]; > 100 µM (inactive) in test [2]; > 100 µM (inactive) in [3]; 68.7 µM (inactive) in test [4]; > 100 µM (inactive) in test [5]; > 100 µM (inactive) in test [6]. Besides, the GI50 in test [7] is > 100 µM (inactive); in [8], 33.9 µM (inactive); in test [9], > 100 µM (inactive); in test [11], 15.5 µM (inactive); in test [12] it was > 100 µM (inactive); in [13], > 100 µM (inactive). In addition, the GI50 in [14] was 43.6 µM (inactive); in [15], > 100 µM (inactive).
For the compound `CN(C(=O)/C=C/c1ccccc1)C1C2CN3CCC(O2)C13` (stereo not drawn), the GI50 in test [1], in test [2], in test [3], in test [5], in [6] and in test [7] was > 100 µM (inactive) in each case. Besides, the GI50 in test [8], in test [9], in test [11], in test [12], in [13] and in test [14] was > 100 µM (inactive) throughout. Also, the GI50 in [15] is > 100 µM (inactive).
Regarding `COc1cc2c(c(OC)c1OC)-c1ccc(SC)c(=O)cc1[C@@H](NC(=O)c1ccc(OC(C)=O)cc1)CC2`, the GI50 in test [1] is 0.0217 µM (active); in test [2], 0.0313 µM (active); in test [3], 0.0313 µM (active); in test [4], 0.00257 µM (active); in [5] it was 0.0198 µM (active); in test [6] it was 0.0306 µM (active). Also, the GI50 in test [7] is 0.0241 µM (active); in test [8], 0.0229 µM (active); in test [9] it was 0.015 µM (active); in test [11], 0.029 µM (active); in test [12], 0.0212 µM (active); in [13], 0.01 µM (active). Moreover, the results for the GI50 in test [14] and in test [15] were 0.0329 µM (active) and 0.0675 µM (active), respectively.
